Data as given in PubChem BioAssay (NCI).
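Values below derive from 48-hour exposures of cells grown in 96-well plates, with endpoints linearly interpolated between the two concentrations bracketing the appropriate inhibition level. TGI denotes the concentration required for complete inhibition of growth.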

Legend:
Experiment in all cases: growth of human tumour cells (NCI), 48 h
SW-620 colon = system: SW-620 colon
MDA-MB-231 breast = system: MDA-MB-231 breast
M14 melanoma = system: M14 melanoma
NCI-H460 lung = system: NCI-H460 lung
BT-549 breast = system: BT-549 breast
U251 CNS = system: U251 CNS
MDA-N = system: MDA-N
NCI-H226 lung = system: NCI-H226 lung
HCT-116 colon = system: HCT-116 colon
OVCAR-8 ovarian = system: OVCAR-8 ovarian
PC-3 prostate = system: PC-3 prostate
SF-295 CNS = system: SF-295 CNS
SF-268 CNS = system: SF-268 CNS
COLO 205 colon = system: COLO 205 colon
NCI/ADR-RES ovarian = system: NCI/ADR-RES ovarian
EKVX NSCLC = system: EKVX NSCLC
NCI-H23 lung = system: NCI-H23 lung
HOP-92 NSCLC = system: HOP-92 NSCLC
OVCAR-3 ovarian = system: OVCAR-3 ovarian
SK-MEL-5 melanoma = system: SK-MEL-5 melanoma
OVCAR-4 ovarian = system: OVCAR-4 ovarian
ACHN renal = system: ACHN renal
DU-145 prostate = system: DU-145 prostate
K-562 leukemia = system: K-562 leukemia
OVCAR-5 ovarian = system: OVCAR-5 ovarian
RPMI-8226 leukemia = system: RPMI-8226 leukemia
LOX IMVI melanoma = system: LOX IMVI melanoma
MDA-MB-435 = system: MDA-MB-435
HOP-62 NSCLC = system: HOP-62 NSCLC
HCT-15 colon = system: HCT-15 colon
786-0 renal = system: 786-0 renal
UACC-257 melanoma = system: UACC-257 melanoma
KM12 colon = system: KM12 colon
UACC-62 melanoma = system: UACC-62 melanoma
SF-539 CNS = system: SF-539 CNS
UO-31 renal = system: UO-31 renal
NCI-H522 lung = system: NCI-H522 lung
A498 renal = system: A498 renal
IGROV1 ovarian = system: IGROV1 ovarian
SK-OV-3 ovarian = system: SK-OV-3 ovarian
SK-MEL-2 melanoma = system: SK-MEL-2 melanoma
MCF7 breast = system: MCF7 breast
T-47D breast = system: T-47D breast
TK-10 renal = system: TK-10 renal
MOLT-4 leukemia = system: MOLT-4 leukemia
HCC-2998 colon = system: HCC-2998 colon
SK-MEL-28 melanoma = system: SK-MEL-28 melanoma
HT29 colon = system: HT29 colon
CAKI-1 renal = system: CAKI-1 renal
SN12C renal = system: SN12C renal
SNB-75 CNS = system: SNB-75 CNS
SR leukemia = system: SR leukemia
A549 NSCLC = system: A549 NSCLC
SNB-19 CNS = system: SNB-19 CNS
MALME-3M melanoma = system: MALME-3M melanoma
CCRF-CEM leukemia = system: CCRF-CEM leukemia
RXF 393 renal = system: RXF 393 renal
HL-60(TB) leukemia = system: HL-60(TB) leukemia

Compound: O=C(CCC1CCCCC1)NCc1ccc(C(=O)O)cc1
- TGI (SW-620 colon): > 100 µM
- TGI (MDA-MB-231 breast): > 100 µM
- TGI (M14 melanoma): > 100 µM
- TGI (NCI-H460 lung): > 100 µM
- TGI (BT-549 breast): > 100 µM
- TGI (U251 CNS): > 100 µM
- TGI (MDA-N): > 100 µM
- TGI (NCI-H226 lung): > 100 µM
- TGI (HCT-116 colon): > 100 µM
- TGI (OVCAR-8 ovarian): > 100 µM
- TGI (PC-3 prostate): > 100 µM
- TGI (SF-295 CNS): > 100 µM
- TGI (SF-268 CNS): > 100 µM
- TGI (COLO 205 colon): > 100 µM
- TGI (NCI/ADR-RES ovarian): > 100 µM
- TGI (EKVX NSCLC): > 100 µM
- TGI (NCI-H23 lung): > 100 µM
- TGI (HOP-92 NSCLC): > 100 µM
- TGI (OVCAR-3 ovarian): > 100 µM
- TGI (SK-MEL-5 melanoma): > 100 µM
- TGI (OVCAR-4 ovarian): > 100 µM
- TGI (ACHN renal): > 100 µM
- TGI (DU-145 prostate): > 100 µM
- TGI (K-562 leukemia): > 100 µM
- TGI (OVCAR-5 ovarian): > 100 µM
- TGI (RPMI-8226 leukemia): > 100 µM
- TGI (LOX IMVI melanoma): > 100 µM
- TGI (MDA-MB-435): > 100 µM
- TGI (HOP-62 NSCLC): > 100 µM
- TGI (HCT-15 colon): > 100 µM
- TGI (786-0 renal): > 100 µM
- TGI (UACC-257 melanoma): > 100 µM
- TGI (KM12 colon): > 100 µM
- TGI (UACC-62 melanoma): > 100 µM
- TGI (SF-539 CNS): > 100 µM
- TGI (UO-31 renal): > 100 µM
- TGI (NCI-H522 lung): > 100 µM
- TGI (A498 renal): > 100 µM
- TGI (IGROV1 ovarian): > 100 µM
- TGI (SK-OV-3 ovarian): > 100 µM
- TGI (SK-MEL-2 melanoma): > 100 µM
- TGI (MCF7 breast): > 100 µM
- TGI (T-47D breast): > 100 µM
- TGI (TK-10 renal): > 100 µM
- TGI (MOLT-4 leukemia): > 100 µM
- TGI (HCC-2998 colon): > 100 µM
- TGI (SK-MEL-28 melanoma): > 100 µM
- TGI (HT29 colon): > 100 µM
- TGI (CAKI-1 renal): > 100 µM
- TGI (SN12C renal): > 100 µM
- TGI (SNB-75 CNS): > 100 µM
- TGI (SR leukemia): > 100 µM
- TGI (A549 NSCLC): > 100 µM
- TGI (SNB-19 CNS): > 100 µM
- TGI (MALME-3M melanoma): > 100 µM
- TGI (CCRF-CEM leukemia): > 100 µM
- TGI (RXF 393 renal): > 100 µM

Compound: O=C(O)C(CCc1ccccc1)N1C(=O)c2ccccc2C1=O (stereo not given)
- TGI (SW-620 colon): > 100 µM
- TGI (MDA-MB-231 breast): > 100 µM
- TGI (M14 melanoma): > 100 µM
- TGI (NCI-H460 lung): > 100 µM
- TGI (BT-549 breast): > 100 µM
- TGI (U251 CNS): > 100 µM
- TGI (MDA-N): > 100 µM
- TGI (NCI-H226 lung): > 100 µM
- TGI (HCT-116 colon): > 100 µM
- TGI (OVCAR-8 ovarian): > 100 µM
- TGI (PC-3 prostate): > 100 µM
- TGI (SF-295 CNS): > 100 µM
- TGI (COLO 205 colon): > 100 µM
- TGI (NCI/ADR-RES ovarian): > 100 µM
- TGI (EKVX NSCLC): > 100 µM
- TGI (NCI-H23 lung): > 100 µM
- TGI (HOP-92 NSCLC): > 100 µM
- TGI (OVCAR-3 ovarian): > 100 µM
- TGI (SK-MEL-5 melanoma): > 100 µM
- TGI (OVCAR-4 ovarian): > 100 µM
- TGI (ACHN renal): > 100 µM
- TGI (DU-145 prostate): > 100 µM
- TGI (K-562 leukemia): > 100 µM
- TGI (OVCAR-5 ovarian): > 100 µM
- TGI (RPMI-8226 leukemia): > 100 µM
- TGI (LOX IMVI melanoma): > 100 µM
- TGI (MDA-MB-435): > 100 µM
- TGI (HOP-62 NSCLC): > 100 µM
- TGI (HCT-15 colon): > 100 µM
- TGI (786-0 renal): > 100 µM
- TGI (UACC-257 melanoma): > 100 µM
- TGI (KM12 colon): > 100 µM
- TGI (UACC-62 melanoma): > 100 µM
- TGI (SF-539 CNS): > 100 µM
- TGI (UO-31 renal): > 100 µM
- TGI (A498 renal): > 100 µM
- TGI (IGROV1 ovarian): > 100 µM
- TGI (SK-OV-3 ovarian): > 100 µM
- TGI (SK-MEL-2 melanoma): > 100 µM
- TGI (MCF7 breast): > 100 µM
- TGI (T-47D breast): > 100 µM
- TGI (TK-10 renal): > 100 µM
- TGI (MOLT-4 leukemia): > 100 µM
- TGI (SK-MEL-28 melanoma): > 100 µM
- TGI (HT29 colon): > 100 µM
- TGI (CAKI-1 renal): > 100 µM
- TGI (SN12C renal): > 100 µM
- TGI (SNB-75 CNS): > 100 µM
- TGI (SR leukemia): > 100 µM
- TGI (A549 NSCLC): > 100 µM
- TGI (SNB-19 CNS): > 100 µM
- TGI (CCRF-CEM leukemia): > 100 µM
- TGI (HL-60(TB) leukemia): > 100 µM
- TGI (RXF 393 renal): > 100 µM

Compound: CCN(CC)c1ccc2cc(-c3nc4ccccc4n3C)c(=O)oc2c1
- TGI (SW-620 colon): > 100 µM
- TGI (MDA-MB-231 breast): > 54.3 µM
- TGI (M14 melanoma): > 100 µM
- TGI (NCI-H460 lung): 4.36 µM
- TGI (BT-549 breast): 0.861 µM
- TGI (U251 CNS): > 41.9 µM
- TGI (MDA-N): 0.135 µM
- TGI (NCI-H226 lung): 1.46 µM
- TGI (HCT-116 colon): > 100 µM
- TGI (OVCAR-8 ovarian): > 100 µM
- TGI (SF-295 CNS): > 100 µM
- TGI (SF-268 CNS): > 100 µM
- TGI (NCI/ADR-RES ovarian): 0.727 µM
- TGI (NCI-H23 lung): 29.3 µM
- TGI (HOP-92 NSCLC): > 100 µM
- TGI (SK-MEL-5 melanoma): 3.42 µM
- TGI (OVCAR-4 ovarian): > 100 µM
- TGI (ACHN renal): > 100 µM
- TGI (DU-145 prostate): > 24.2 µM
- TGI (K-562 leukemia): > 100 µM
- TGI (OVCAR-5 ovarian): > 100 µM
- TGI (RPMI-8226 leukemia): > 31.6 µM
- TGI (LOX IMVI melanoma): > 100 µM
- TGI (MDA-MB-435): 0.334 µM
- TGI (HOP-62 NSCLC): 29.8 µM
- TGI (HCT-15 colon): > 100 µM
- TGI (786-0 renal): > 48.7 µM
- TGI (UACC-257 melanoma): > 100 µM
- TGI (KM12 colon): > 100 µM
- TGI (SF-539 CNS): 0.545 µM
- TGI (UO-31 renal): > 100 µM
- TGI (NCI-H522 lung): 0.661 µM
- TGI (A498 renal): 0.187 µM
- TGI (IGROV1 ovarian): 4.79 µM
- TGI (SK-OV-3 ovarian): 43.6 µM
- TGI (SK-MEL-2 melanoma): 0.68 µM
- TGI (MCF7 breast): > 100 µM
- TGI (T-47D breast): > 100 µM
- TGI (TK-10 renal): > 100 µM
- TGI (MOLT-4 leukemia): > 100 µM
- TGI (HT29 colon): 11 µM
- TGI (CAKI-1 renal): > 100 µM
- TGI (SN12C renal): > 100 µM
- TGI (SR leukemia): > 100 µM
- TGI (A549 NSCLC): > 100 µM
- TGI (SNB-19 CNS): > 100 µM
- TGI (CCRF-CEM leukemia): > 100 µM
- TGI (HL-60(TB) leukemia): > 100 µM
- TGI (RXF 393 renal): 63.1 µM
